From ChEMBL document CHEMBL1201862, “PubChem BioAssay data set” (2004)
The source made the active and inactive calls.

Legend:
[1] = target: T1, Microphthalmia-associated transcription factor (Homo sapiens, UniProt O75030); test: TRPM1 promoter luciferase signal decrease, dose response, MITF inhibitor project, cell-based, SK-MEL-5, cherry-picked, set 3 (AID 493073); assay type: functional
T1 sequence (O75030 whole entry): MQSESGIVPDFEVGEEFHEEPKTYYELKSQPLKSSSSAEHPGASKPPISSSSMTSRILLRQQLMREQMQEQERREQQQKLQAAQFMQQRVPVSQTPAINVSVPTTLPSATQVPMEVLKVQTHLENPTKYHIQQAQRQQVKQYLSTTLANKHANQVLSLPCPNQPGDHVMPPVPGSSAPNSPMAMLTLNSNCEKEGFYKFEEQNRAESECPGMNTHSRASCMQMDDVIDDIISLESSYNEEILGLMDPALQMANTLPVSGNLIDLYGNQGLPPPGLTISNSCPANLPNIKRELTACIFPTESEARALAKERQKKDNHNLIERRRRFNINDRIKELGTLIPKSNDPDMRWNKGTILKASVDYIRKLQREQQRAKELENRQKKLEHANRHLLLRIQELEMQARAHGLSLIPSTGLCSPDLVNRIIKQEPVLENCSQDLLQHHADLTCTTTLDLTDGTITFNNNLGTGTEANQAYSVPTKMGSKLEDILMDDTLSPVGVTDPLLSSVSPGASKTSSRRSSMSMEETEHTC

Melanocortin receptor 4 = Melanocortin receptor 4 (Homo sapiens, UniProt P32245); test: MC4R antagonist potency on cAMP, dose response, cell-based, TR-FRET, biased antagonists (AID 602298); assay type: functional;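 note: antagonist potency against agonist-stimulated cAMP production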
Melanocortin receptor 4, sequence (P32245 whole entry): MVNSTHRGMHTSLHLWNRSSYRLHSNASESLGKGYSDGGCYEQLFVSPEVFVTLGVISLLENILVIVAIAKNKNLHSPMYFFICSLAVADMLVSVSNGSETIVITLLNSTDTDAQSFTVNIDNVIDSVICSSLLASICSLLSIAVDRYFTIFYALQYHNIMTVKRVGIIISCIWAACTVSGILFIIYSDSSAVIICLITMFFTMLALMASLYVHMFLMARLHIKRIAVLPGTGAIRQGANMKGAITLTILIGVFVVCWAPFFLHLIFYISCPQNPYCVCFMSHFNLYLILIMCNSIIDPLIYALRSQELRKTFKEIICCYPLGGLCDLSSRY

[2] = nonselective inhibitors of cellular cAMP signaling, dose response, counter-screen for MC4R biased antagonist project, cell-based, TR-FRET cAMP detection (AID 602305); assay type: functional;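 note: U2OS cells stimulated with forskolin near its EC80 as the cAMP inducer; potency is for inhibition of forskolin-stimulated cAMP signaling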
Aminopeptidase N = target: T2, Aminopeptidase N (Plasmodium falciparum FcB1/Columbia, UniProt O96935); test: P. falciparum M1AAP inhibitors, biochemical, fluorogenic H-Leu-NHMec substrate, 1536-well (AID 1445); parameters: species or system Plasmodium falciparum 3D7, 3D7
T2 sequence (O96935 whole entry): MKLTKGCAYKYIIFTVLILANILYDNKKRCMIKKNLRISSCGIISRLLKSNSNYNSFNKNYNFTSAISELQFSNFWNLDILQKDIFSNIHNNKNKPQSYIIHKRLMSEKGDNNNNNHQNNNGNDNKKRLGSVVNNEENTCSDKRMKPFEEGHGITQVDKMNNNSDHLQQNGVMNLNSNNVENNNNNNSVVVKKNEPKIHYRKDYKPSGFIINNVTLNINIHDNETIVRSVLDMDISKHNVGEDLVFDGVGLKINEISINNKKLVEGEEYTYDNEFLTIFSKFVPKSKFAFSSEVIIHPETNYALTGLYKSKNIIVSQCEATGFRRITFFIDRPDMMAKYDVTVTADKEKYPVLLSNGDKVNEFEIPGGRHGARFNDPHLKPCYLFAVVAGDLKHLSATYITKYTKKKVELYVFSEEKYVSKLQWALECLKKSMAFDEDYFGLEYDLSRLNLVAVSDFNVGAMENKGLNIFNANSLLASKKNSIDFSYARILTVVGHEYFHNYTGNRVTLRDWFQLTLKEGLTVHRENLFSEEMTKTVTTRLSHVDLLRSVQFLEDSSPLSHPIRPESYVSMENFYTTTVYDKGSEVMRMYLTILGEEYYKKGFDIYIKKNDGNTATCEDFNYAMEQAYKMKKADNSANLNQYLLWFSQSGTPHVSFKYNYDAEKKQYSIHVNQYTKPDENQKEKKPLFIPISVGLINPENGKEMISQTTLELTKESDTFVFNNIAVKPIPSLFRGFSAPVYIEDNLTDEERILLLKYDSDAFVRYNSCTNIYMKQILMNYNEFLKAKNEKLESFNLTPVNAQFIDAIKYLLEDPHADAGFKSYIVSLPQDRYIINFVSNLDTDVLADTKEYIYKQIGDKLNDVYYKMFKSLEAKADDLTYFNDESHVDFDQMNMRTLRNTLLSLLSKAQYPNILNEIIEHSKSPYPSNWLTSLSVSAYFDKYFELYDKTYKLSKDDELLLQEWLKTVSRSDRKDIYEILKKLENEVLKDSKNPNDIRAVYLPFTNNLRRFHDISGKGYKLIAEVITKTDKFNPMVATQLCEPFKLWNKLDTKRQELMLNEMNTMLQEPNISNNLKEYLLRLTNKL

cells [3] = assay type: functional, cell-based
cells [4] = assay type: functional, cell-based; remark: listed apart in the source
Nonstructural protein 1 = Nonstructural protein 1 (Influenza A virus, UniProt Q194T2); assay type: functional, Influenza A virus (A/California/07/2009(H1N1))
Nonstructural protein 1, sequence (Q194T2 whole entry): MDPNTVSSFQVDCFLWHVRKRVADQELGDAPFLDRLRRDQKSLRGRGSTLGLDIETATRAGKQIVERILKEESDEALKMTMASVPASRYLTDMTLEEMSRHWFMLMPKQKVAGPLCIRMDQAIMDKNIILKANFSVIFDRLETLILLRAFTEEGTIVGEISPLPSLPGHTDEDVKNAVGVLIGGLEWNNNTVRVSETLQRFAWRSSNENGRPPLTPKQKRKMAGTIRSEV

[5] = AlphaScreen signal interference compounds, dose response, artefact control for ARNT-TACC3 interaction inhibitor project, biochemical, luminescence, cherry-pick (AID 651705); assay type: functional;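 note: AlphaScreen bead proximity signal that flags compounds interfering with the detection technology; potency reflects signal decrease which marks the compound as an assay artifact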
[6] = target: T3, Adenosylmethionine-8-amino-7-oxononanoate aminotransferase (Mycobacterium tuberculosis, UniProt P9WQ81); test: Mycobacterium tuberculosis BioA enzyme inhibitor Measured in Biochemical System Using Plate Reader - 2163-02_Inhibitor_Dose_CherryPick_Activity.; assay type: functional, Mycobacterium tuberculosis UT205
T3 sequence (P9WQ81 whole entry): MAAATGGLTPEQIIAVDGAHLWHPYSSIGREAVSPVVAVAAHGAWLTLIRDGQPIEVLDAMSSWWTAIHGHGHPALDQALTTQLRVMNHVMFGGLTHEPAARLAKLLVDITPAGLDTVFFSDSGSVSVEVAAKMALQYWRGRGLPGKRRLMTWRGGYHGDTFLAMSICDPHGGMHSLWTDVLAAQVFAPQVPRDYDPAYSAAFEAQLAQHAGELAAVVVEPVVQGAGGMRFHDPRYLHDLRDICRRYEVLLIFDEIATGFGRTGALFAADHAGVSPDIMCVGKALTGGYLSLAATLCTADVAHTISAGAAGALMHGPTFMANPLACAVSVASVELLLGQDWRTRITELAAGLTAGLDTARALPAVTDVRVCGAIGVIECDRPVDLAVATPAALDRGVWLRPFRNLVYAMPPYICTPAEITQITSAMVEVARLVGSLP

[7] = A Cell Based Secondary Assay To Explore Cytotoxicity of Compounds that Sensitize Mycobacterium Tuberculosis to Beta-Lactam Antibiotics.; assay type: functional
[8] = target: DNA (cytosine-5)-methyltransferase 1 (Homo sapiens, UniProt P26358); test: DNMT1 methyltransferase inhibitors, confirmation, biochemical, fluorescent molecular beacon (AID 602386); assay type: functional
DNA (cytosine-5)-methyltransferase 1, sequence (P26358 whole entry): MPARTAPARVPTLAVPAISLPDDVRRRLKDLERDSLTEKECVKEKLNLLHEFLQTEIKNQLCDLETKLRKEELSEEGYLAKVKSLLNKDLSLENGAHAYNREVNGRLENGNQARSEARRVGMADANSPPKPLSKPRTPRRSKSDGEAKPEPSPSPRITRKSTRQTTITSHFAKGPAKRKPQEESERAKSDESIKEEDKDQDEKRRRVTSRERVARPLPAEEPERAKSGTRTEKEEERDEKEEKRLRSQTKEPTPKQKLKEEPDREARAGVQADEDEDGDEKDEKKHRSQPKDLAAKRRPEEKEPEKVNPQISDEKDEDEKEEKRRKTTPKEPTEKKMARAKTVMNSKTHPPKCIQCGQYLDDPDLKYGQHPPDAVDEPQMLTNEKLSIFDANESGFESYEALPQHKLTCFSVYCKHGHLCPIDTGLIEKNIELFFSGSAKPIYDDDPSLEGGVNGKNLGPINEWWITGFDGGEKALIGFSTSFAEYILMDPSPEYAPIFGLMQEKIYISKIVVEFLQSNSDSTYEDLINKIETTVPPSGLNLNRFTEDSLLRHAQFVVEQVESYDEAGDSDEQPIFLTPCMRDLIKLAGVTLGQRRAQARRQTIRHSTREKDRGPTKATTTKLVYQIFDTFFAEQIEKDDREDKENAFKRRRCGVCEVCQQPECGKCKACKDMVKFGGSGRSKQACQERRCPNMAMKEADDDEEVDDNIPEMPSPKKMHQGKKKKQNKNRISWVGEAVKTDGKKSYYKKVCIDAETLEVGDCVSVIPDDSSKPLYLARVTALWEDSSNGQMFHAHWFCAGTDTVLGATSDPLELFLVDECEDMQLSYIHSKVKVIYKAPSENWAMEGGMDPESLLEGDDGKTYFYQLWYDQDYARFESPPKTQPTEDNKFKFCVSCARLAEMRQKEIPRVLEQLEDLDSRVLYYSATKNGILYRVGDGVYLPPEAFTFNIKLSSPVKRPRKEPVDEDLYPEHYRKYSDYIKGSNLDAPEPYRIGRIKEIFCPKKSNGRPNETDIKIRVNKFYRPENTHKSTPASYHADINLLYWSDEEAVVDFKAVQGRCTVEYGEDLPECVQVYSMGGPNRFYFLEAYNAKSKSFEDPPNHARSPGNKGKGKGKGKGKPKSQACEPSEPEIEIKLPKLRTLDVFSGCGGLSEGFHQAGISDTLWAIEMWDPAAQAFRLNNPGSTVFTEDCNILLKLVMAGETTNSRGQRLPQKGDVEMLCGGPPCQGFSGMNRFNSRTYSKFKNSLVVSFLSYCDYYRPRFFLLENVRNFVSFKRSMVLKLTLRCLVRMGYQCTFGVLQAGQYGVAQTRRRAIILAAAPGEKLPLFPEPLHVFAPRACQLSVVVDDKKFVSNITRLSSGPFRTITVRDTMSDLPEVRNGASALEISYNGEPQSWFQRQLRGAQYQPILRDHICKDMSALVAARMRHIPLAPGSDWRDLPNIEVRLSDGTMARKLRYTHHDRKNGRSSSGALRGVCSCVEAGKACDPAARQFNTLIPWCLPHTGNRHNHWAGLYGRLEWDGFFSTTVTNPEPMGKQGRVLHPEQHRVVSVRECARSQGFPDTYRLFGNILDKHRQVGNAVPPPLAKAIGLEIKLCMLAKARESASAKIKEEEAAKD

[9] = target: T4, Probable nicotinate-nucleotide adenylyltransferase (Staphylococcus aureus (strain N315), UniProt P65502); assay type: functional, Staphylococcus aureus subsp. aureus N315;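 for IC50 Mean: confirmatory dose-response retesting of NadD inhibitor hits first found in an ultra-high-throughput screen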
T4 sequence (P65502 whole entry): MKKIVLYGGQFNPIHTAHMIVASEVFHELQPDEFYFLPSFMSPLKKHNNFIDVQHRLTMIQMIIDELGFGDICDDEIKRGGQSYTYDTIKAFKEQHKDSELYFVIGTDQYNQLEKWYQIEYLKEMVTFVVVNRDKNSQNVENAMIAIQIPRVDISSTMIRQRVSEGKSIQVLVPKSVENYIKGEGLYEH

[10] = target: T4, Probable nicotinate-nucleotide adenylyltransferase; assay type: functional, Staphylococcus aureus subsp. aureus N315; conditions: read-out: IC50_Mean
[11] = target: T5, High affinity choline transporter 1 (Homo sapiens, UniProt Q9GZV3); test: CHT inhibitors, dose response, cell-based, 5-point CRC, membrane potential dye (AID 504840); assay type: functional
T5 sequence (Q9GZV3 whole entry): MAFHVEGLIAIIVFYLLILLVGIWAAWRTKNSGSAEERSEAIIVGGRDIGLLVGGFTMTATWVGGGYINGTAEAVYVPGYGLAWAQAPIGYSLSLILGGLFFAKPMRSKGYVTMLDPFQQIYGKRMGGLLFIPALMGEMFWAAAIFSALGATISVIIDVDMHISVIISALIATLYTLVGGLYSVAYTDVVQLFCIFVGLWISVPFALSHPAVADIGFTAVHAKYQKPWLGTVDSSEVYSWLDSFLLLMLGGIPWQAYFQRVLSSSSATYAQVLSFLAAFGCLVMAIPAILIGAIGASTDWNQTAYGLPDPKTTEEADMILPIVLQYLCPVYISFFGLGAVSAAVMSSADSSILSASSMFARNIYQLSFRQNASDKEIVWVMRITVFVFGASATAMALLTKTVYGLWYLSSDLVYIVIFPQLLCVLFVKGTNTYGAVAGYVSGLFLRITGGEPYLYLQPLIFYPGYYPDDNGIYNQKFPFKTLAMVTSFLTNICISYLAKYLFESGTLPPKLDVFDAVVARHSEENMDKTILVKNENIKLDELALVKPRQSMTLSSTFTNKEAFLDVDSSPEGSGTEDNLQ

[12] = target: T5, High affinity choline transporter 1; test: CHT inhibitors, dose response, cell-based, 10-point CRC, membrane potential dye (AID 588401); assay type: functional;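 note: membrane potential dye fluorescence of choline-evoked depolarization via CHT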
[13] = target: T6, Mitochondrial peptide methionine sulfoxide reductase (Bos taurus, UniProt P54149); assay type: functional;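 note: absorbance read-out, biochemical high-throughput dose-response screen for MsrA inhibitors, confirmatory; recombinant bovine MsrA coupled to E. coli TrxB with NADPH and selenocystamine; potency is for inhibitors of MsrA activity on DMSO substrate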
T6 sequence (P54149 whole entry): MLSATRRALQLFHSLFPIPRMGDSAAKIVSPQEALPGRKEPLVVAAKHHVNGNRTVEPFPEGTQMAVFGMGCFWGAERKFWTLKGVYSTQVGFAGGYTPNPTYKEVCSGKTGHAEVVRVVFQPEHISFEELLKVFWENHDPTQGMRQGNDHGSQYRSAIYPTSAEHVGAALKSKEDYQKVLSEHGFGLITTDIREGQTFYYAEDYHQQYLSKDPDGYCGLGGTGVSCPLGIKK

[14] = target: T7, RNA-binding protein pos-1 (Caenorhabditis elegans, UniProt G5EF15); test: inhibitors of POS-1/mex-3 RNA binding, dose response, biochemical, fluorescence polarization (AID 1964);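 note: purified POS-1 fused to maltose binding protein made in E. coli; potency of compounds blocking POS-1 binding to fluorescent RNA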
T7 sequence (G5EF15 whole entry): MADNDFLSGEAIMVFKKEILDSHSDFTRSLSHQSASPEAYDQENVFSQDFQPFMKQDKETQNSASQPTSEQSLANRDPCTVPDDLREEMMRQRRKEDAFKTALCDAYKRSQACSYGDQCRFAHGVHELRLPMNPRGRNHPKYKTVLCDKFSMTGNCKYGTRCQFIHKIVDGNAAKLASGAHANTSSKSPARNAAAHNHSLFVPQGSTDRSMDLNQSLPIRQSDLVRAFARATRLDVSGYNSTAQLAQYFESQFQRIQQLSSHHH

[15] = target: T8, Zinc finger protein mex-5 (Caenorhabditis elegans, UniProt Q9XUB2); test: MEX-5/TCR-2 RNA interaction inhibitors, dose response, biochemical, C. elegans, fluorescence polarization (AID 1960)
T8 sequence (Q9XUB2 whole entry): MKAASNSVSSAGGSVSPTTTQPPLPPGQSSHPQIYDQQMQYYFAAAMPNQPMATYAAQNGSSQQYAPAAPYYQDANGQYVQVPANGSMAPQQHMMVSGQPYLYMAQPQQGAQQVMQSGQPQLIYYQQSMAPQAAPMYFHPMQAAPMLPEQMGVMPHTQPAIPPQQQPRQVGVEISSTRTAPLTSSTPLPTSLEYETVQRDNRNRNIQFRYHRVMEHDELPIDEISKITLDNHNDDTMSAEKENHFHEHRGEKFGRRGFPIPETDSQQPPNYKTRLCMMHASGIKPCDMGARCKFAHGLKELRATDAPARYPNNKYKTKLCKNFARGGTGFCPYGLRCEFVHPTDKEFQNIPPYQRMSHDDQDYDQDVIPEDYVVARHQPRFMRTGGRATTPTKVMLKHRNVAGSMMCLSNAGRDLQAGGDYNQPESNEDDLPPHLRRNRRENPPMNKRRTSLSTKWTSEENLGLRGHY

SMILES: Cc1cc(C(=O)CCl)c(C)n1CCc1ccc(F)cc1
- AC50 [1]: 4.25 µM (active)
- IC50 (Melanocortin receptor 4): > 64.5 µM (inactive)
- IC50 [2]: > 64.5 µM (inactive)

SMILES: O=C(N/N=C/c1cc(Br)ccc1O)C(c1ccncc1)N1CCOCC1 (stereo not drawn)
- IC50 (Aminopeptidase N): 12 µM (active)
- EC50 (cells [3]): 189 µM (active)
- EC50 (cells [4]): > 350 µM (not active)
- IC50 (Nonstructural protein 1): 12.5 µM (active)
- AC50 [5]: 78.4 µM (active)

SMILES: CC(=O)c1ccc(N2CCN(C(=O)c3ccc(Br)cc3)CC2)c(F)c1
- AC50 [6]: 0.182 µM (active)

SMILES: Cc1ccc2nc(-c3ccc(NC(=S)NC(=O)C(C)C)cc3)sc2c1
- CC50 [7]: > 40 µM (active)
- IC50 (Melanocortin receptor 4): > 64.6 µM (inactive)
- IC50 [2]: > 64.6 µM (inactive)

SMILES: COc1ccc(Oc2c(OC)cc(NCc3ccc(CN)cc3)c3ncccc23)cc1
- IC50 [8]: 10.3 µM (active)
- IC50 [9]: 7.55 µM (active)
- IC50 [10]: 41.3 µM (active)

SMILES: O=[N+]([O-])c1cc(NS(=O)(=O)c2ccc(Cl)nc2)ccc1Cl
- IC50 [11]: 2.4 µM (active)
- IC50 [12]: 3.35 µM (active)

SMILES: O=C(CSc1ccc2nnc(-c3ccccn3)n2n1)Nc1ccc2c(c1)OCO2
- AC50 [5]: 107 µM (active)

SMILES: O=C(Nc1ccc2nccnc2c1)c1cnccn1
- AC50 [6]: 6.04 µM (active)

SMILES: C/C(CCC(=O)O)=N/Nc1ccc([N+](=O)[O-])cc1[N+](=O)[O-]
- IC50 [13]: 155 µM (inactive)

SMILES: Cc1c(C(=O)O)cccc1-n1c(C)cc(/C=C2\C(=O)NC(=O)N(c3ccc4c(c3)OCO4)C2=O)c1C
- EC50 [14]: > 300 µM (not active)
- EC50 [15]: > 300 µM (not active)
- IC50 [8]: 18 µM (active)

SMILES: CCCn1c2ccccc2c2cnn(CC(=O)NCCN(CC)CC)c(=O)c21
- IC50 [11]: 5.7 µM (active)
- IC50 [12]: 3.36 µM (active)

SMILES: CCc1occc(=O)c1Oc1cc(NN2CCCCC2)c([N+](=O)[O-])cc1[N+](=O)[O-]
- IC50 [13]: 119 µM (inactive)

SMILES: CC1(C)CC(=O)C=C(c2ccc3ncccc3c2)C1
- AC50 [6]: 4.74 µM (active)

SMILES: O=C(Nc1nnc(C2=COCCO2)o1)c1ccc([N+](=O)[O-])cc1
- AC50 [5]: 101 µM (active)

SMILES: N#C/C(=C\Nc1ccccc1O)c1nc2ccccc2o1
- IC50 [13]: 155 µM (inactive)

SMILES: C#CCNc1c(C)c(C)nc2ncnn12
- IC50 [11]: 9.35 µM (active)
- IC50 [12]: 4.47 µM (active)

SMILES: O=[N+]([O-])c1cc(Br)cc(/C=N/c2ccc3c(c2)OCO3)c1O
- IC50 [11]: 9.12 µM (active)
- IC50 [12]: 10 µM (active)
